Data reported in the NIST ThermoML archive (doi:10.1021/je700245a).

Assay: xn = mol fraction of the nth substance listed
Settings: 101 kPa, Liquid

CN(CCO)CCO [N-methyldiethanolamine] + CCO
speed of sound [m/s], Sing-around technique in a fixed-path interferometer
Settings	288.15 K	293.15 K	298.15 K	303.15 K	308.15 K	313.15 K
x1 = 0.0049	1183.1	1166	1149.2	1132.3	1114.8	1098.8
x1 = 0.0253	1201.7	1184.9	1168	1151.2	1134.5	1117.9
x1 = 0.0524	1222.5	1205.9	1189.3	1172.7	1156.3	1139.8
x1 = 0.102	1260.9	1244.5	1228.1	1211.8	1195.6	1179.5
x1 = 0.1629	1301	1286	1272.9	1257.3	1241.5	1225.8
x1 = 0.2474	1353	1338	1325	1310	1293	1278
x1 = 0.3713	1415	1399.7	1384.6	1369.4	1354.1	1339
x1 = 0.4806	1460	1444	1429.2	1414	1398.8	1383.7
x1 = 0.5506	1486	1470	1457	1439	1423.8	1408.7
x1 = 0.7035	1536	1520	1500	1484.3	1468.9	1453.6
x1 = 0.7916	1557	1542	1522	1505.6	1490.3	1475.1
x1 = 0.8688	1573.2	1557.7	1538	1520.8	1506.2	1491.5
x1 = 0.9415	1588.4	1572.9	1553	1535	1520.4	1506.1
x1 = 1	1598.8	1583.1	1564	1546	1531	1516

mass density [kg/m3]
Settings	288.15 K	293.15 K	298.15 K	303.15 K	308.15 K	313.15 K
x1 = 0.0049	797.34	793.08	788.79	784.48	779.2	775.41
x1 = 0.0253	810.93	806.7	802.07	797.45	792.51	788.32
x1 = 0.0524	826.23	822.03	817.31	812.97	807.85	803.95
x1 = 0.102	855.32	850.46	845.79	841.06	835.99	831.61
x1 = 0.1629	883.86	879	874.36	869.83	864.64	860.34
x1 = 0.2474	916.48	911.75	907.18	902.4	897.2	892.65
x1 = 0.3713	952.15	947.5	942.7	938.24	933.17	928.65
x1 = 0.4806	977.2	973.1	968.28	963.57	958.75	954
x1 = 0.5506	991.1	986.7	982.08	977.52	972.75	967.98
x1 = 0.7035	1013.7	1009.24	1005.04	1000.62	996.08	991.6
x1 = 0.7916	1024.1	1019.88	1015.3	1011.24	1006.79	1002.49
x1 = 0.8688	1032.69	1028.4	1024.2	1019.64	1015.81	1011.97
x1 = 0.9415	1038.68	1034.96	1031.19	1027.42	1023.63	1019.82
x1 = 1	1044.32	1040.6	1036.83	1033.06	1029.26	1025.45

CCO [ethanol] + CN(CCO)CCO
Sing-around technique in a fixed-path interferometer, x2 = 0
Settings	speed of sound [m/s]
288.15 K	1179
293.15 K	1162
298.15 K	1144.9
303.15 K	1128
308.15 K	1111.1
313.15 K	1094.3

x2 = 0
Settings	mass density [kg/m3]
288.15 K	793.6
293.15 K	789.35
298.15 K	785.06
303.15 K	780.76
308.15 K	776
313.15 K	772.03

CCO [ethanol] + OCCN(CCO)CCO
x2 = 0
Settings	mass density [kg/m3]	speed of sound [m/s]
288.15 K	793.6	1179
293.15 K	789.35	1162
298.15 K	785.06	1144.9
303.15 K	780.76	1128
308.15 K	776	1111.1
313.15 K	772.03	1094.3

OCCN(CCO)CCO [triethanolamine] + CCO
Settings	mass density [kg/m3]	speed of sound [m/s]
288.15 K, x1 = 0.0075	799.61	1185.2
288.15 K, x1 = 0.0184	808.53	1193.4
288.15 K, x1 = 0.0304	818	1202.1
288.15 K, x1 = 0.0622	840.61	1225.5
288.15 K, x1 = 0.1385	889.41	1277
288.15 K, x1 = 0.2275	935.37	1333.2
288.15 K, x1 = 0.335	979.49	1397
288.15 K, x1 = 0.4675	1021.75	1453.1
288.15 K, x1 = 0.6413	1064.29	1528
288.15 K, x1 = 0.779	1091.59	1558.4
288.15 K, x1 = 0.8537	1104.43	1597.9
288.15 K, x1 = 0.9328	1116.76	1617.3
288.15 K, x1 = 1	1126.19	1640.5
293.15 K, x1 = 0.0075	795.43	1168.3
293.15 K, x1 = 0.0184	804.51	1176.9
293.15 K, x1 = 0.0304	813.73	1185.9
293.15 K, x1 = 0.0622	836.37	1210
293.15 K, x1 = 0.1385	885.58	1262.7
293.15 K, x1 = 0.2275	931.77	1320
293.15 K, x1 = 0.335	976.06	1385
293.15 K, x1 = 0.4675	1018.53	1442.5
293.15 K, x1 = 0.6413	1061.37	1516.6
293.15 K, x1 = 0.779	1088.73	1546.8
293.15 K, x1 = 0.8537	1101.67	1585.3
293.15 K, x1 = 0.9328	1114.01	1604.6
293.15 K, x1 = 1	1123.42	1625.6
298.15 K, x1 = 0.0075	791.34	1151.4
298.15 K, x1 = 0.0184	800.35	1160.4
298.15 K, x1 = 0.0304	809.59	1170
298.15 K, x1 = 0.0622	832.35	1194.4
298.15 K, x1 = 0.1385	881.74	1248.6
298.15 K, x1 = 0.2275	928.14	1307.1
298.15 K, x1 = 0.335	972.67	1373.1
298.15 K, x1 = 0.4675	1015.52	1431.6
298.15 K, x1 = 0.6413	1058.61	1505.9
298.15 K, x1 = 0.779	1086.14	1536.4
298.15 K, x1 = 0.8537	1099.23	1574.3
298.15 K, x1 = 0.9328	1111.63	1593.8
298.15 K, x1 = 1	1120.99	1614.5
303.15 K, x1 = 0.0075	786.78	1134.6
303.15 K, x1 = 0.0184	796.27	1143.9
303.15 K, x1 = 0.0304	805.5	1153.8
303.15 K, x1 = 0.0622	828.41	1178.9
303.15 K, x1 = 0.1385	877.88	1234.5
303.15 K, x1 = 0.2275	924.44	1294.3
303.15 K, x1 = 0.335	969.17	1361.4
303.15 K, x1 = 0.4675	1012.27	1420.9
303.15 K, x1 = 0.6413	1055.67	1496
303.15 K, x1 = 0.779	1083.38	1526.6
303.15 K, x1 = 0.8537	1096.33	1564.5
303.15 K, x1 = 0.9328	1108.88	1584.2
303.15 K, x1 = 1	1118.21	1604.5
308.15 K, x1 = 0.0075	782.53	1117.9
308.15 K, x1 = 0.0184	791.61	1127.4
308.15 K, x1 = 0.0304	801.05	1137.7
308.15 K, x1 = 0.0622	824.11	1163.4
308.15 K, x1 = 0.1385	873.56	1220.4
308.15 K, x1 = 0.2275	920.24	1281.5
308.15 K, x1 = 0.335	965.2	1349.9
308.15 K, x1 = 0.4675	1008.69	1410.5
308.15 K, x1 = 0.6413	1052.55	1486.6
308.15 K, x1 = 0.779	1080.43	1517.4
308.15 K, x1 = 0.8537	1093.46	1555.6
308.15 K, x1 = 0.9328	1106.09	1575.4
308.15 K, x1 = 1	1115.38	1595.5
313.15 K, x1 = 0.0075	778.51	1101.2
313.15 K, x1 = 0.0184	787.72	1111.1
313.15 K, x1 = 0.0304	797.32	1121.6
313.15 K, x1 = 0.0622	820.47	1148
313.15 K, x1 = 0.1385	869.89	1206.4
313.15 K, x1 = 0.2275	916.68	1268.8
313.15 K, x1 = 0.335	961.76	1338.4
313.15 K, x1 = 0.4675	1005.44	1400.1
313.15 K, x1 = 0.6413	1049.55	1477.3
313.15 K, x1 = 0.779	1077.53	1508.5
313.15 K, x1 = 0.8537	1090.66	1547
313.15 K, x1 = 0.9328	1103.23	1567.1
313.15 K, x1 = 1	1112.57	1586
